Test results reported in patent US20030018176A1, “Dry acid-chitosan complexes” (priority 1999, published 2003).

Key:
[1] = rat, in vivo
Method: (§1) All rats were fed a basal diet for 5 days prior to initiation of dosing on Day 0. At Day 0, animals in Groups 1 to 5 and 7 received the appropriate formulated diet. The diet was available ad libitum. […] The total amount of the diet consumed by each animal was determined every 3 to 4 days.

[2] = Fat binding feeding study in rats on formulated high fat diet
Method: as §1

- Bilirubin [1]: 0.4 mg/dL
Compound: CCCCCCCCCCC[C@@H](C[C@@H]1OC(=O)[C@H]1CCCCCC)OC(=O)[C@H](CC(C)C)NC=O [Xenical]
- ALT [1]: 54 IU/L
- AST [1]: 104 IU/L
- Triglycerides ([2]; blood of rats, test article in diet): 107 mg/dL
- Weight Gain ([2]; rats, test article in diet ad libitum): 425 gms
